Data: patent US10954268B2, “Method of treating melanocortin-4 receptor-associated disorders in heterozygous carriers” (RHYTHM PHARMACEUTICALS, INC., priority 2011, dated 2021)
Bridges are numbered along the chain shown (N, C = ends). [ ]: non-standard residue; d: D form.

Tested on: Diet induced obesity (DIO) littermate C57B1/6J mice
Assay: Treatment of obese MC4R+/− heterozygotic mice by Alzet pump infusion, body weight measured
Type: in vivo
Settings: Alzet pump infusion 1200 nmol/kg/day for 8 days, FIG. 3
Description: Body weight was measured.
The weight change due to the exposure to the compound of SEQ ID NO: 140 in mice that are either wild type for the MC4R gene, or express only a single MC4R allele, or mice without any MC4R protein expression were compared.

Ac-Arg-c(Cys-D-Ala-His-D-Phe-Arg-Trp-Cys)-NH2 (Ac-RC[dA]H[dF]RWC-NH2; disulfide 2-8 (inferred)) [SEQ ID NO: 140]
weight loss over the treatment period (DIO homozygous MC4R knockout mice (−/−), no MC4R expression): did not show significant weight loss | body weight lost over the treatment period (DIO mice heterozygous for the MC4R gene (+/−)): about 1 gram
